Experiments:
Type in all cases: biochemical
LATS2 = target: T1, LATS2 (Homo sapiens, UniProt Q9NRM7); experiment: RBC HotSpot kinase assay (33P-ATP, P81 filter-binding), LATS2; settings: Table 28, biochemical kinase assay; read-out: LATS2 IC50
T1 sequence (Q9NRM7 1-1088): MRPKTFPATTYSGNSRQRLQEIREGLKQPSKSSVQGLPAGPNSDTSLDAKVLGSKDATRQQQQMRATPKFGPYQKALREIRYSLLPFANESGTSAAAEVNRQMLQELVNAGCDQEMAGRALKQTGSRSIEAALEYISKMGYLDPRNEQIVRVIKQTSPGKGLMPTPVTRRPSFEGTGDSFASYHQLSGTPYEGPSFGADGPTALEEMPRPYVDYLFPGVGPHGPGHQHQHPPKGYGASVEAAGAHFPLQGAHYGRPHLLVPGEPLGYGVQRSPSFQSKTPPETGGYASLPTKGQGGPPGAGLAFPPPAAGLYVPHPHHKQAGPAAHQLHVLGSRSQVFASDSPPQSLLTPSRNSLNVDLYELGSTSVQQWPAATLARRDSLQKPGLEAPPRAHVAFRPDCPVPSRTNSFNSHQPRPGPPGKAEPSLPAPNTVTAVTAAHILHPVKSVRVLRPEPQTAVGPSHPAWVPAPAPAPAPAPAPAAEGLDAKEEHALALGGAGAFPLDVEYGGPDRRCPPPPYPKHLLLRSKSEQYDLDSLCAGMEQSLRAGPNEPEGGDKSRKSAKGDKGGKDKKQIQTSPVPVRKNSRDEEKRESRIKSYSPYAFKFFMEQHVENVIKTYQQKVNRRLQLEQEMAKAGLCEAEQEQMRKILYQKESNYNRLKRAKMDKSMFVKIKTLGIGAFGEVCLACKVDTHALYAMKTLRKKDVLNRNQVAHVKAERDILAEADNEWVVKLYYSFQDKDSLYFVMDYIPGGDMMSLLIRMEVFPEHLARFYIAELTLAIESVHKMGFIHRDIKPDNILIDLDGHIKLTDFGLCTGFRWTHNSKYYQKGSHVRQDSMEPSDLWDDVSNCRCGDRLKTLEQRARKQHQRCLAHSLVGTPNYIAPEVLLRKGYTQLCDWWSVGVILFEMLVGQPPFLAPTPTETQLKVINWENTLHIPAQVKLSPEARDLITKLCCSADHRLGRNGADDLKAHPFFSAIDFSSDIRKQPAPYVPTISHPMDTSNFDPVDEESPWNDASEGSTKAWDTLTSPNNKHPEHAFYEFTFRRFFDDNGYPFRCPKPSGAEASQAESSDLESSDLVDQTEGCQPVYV
Procedure: (§1) Biochemical kinase inhibitory data was obtained for various exemplary compounds prepared according to the above.
(§2) The reagents used are as follows: Base Reaction buffer; 20 mM Hepes (pH 7.5), 10 mM MgCl2, 1 mM EGTA, 0.01% Brij35, 0.02 mg/ml BSA, 0.1 mM Na3VO4, 2 mM DTT, […]. Required cofactors were added individually to each kinase reaction.
(§3) The reaction procedure was as follows: • 1) Substrates were prepared in freshly prepared Reaction Buffer. • 2) Any required cofactors were delivered to the substrate solution above. • 3) Kinase was delivered into the substrate solution and gently mixed. • 4) Compounds were delivered in 100% DMSO into the kinase reaction mixture by Acoustic technology (Echo550; nanoliter range), followed by incubation for 20 min at room temp. • 5) ^33P-ATP was delivered into the reaction mixture to initiate the reaction. • 6) The mixture was incubated for 2 hours at room temperature. • 7) Kinase activity was detected by P81 filter-binding method.
(§4) Using the above functional assay, the inhibitory activity of the compounds for LATS1/2 versus AKT was characterized. The assays were typically run in a 10-point curve, in singlet, to produce a titration curve from which an IC50 value was obtained.
(§5) The reagents used are as follows: Base Reaction buffer; 20 mM Hepes (pH 7.5), 10 mM MgCl2, 1 mM EGTA, 0.01% Brij35, 0.02 mg/ml BSA, 0.1 mM Na3VO4, 2 mM DTT, 1% DMSO. Required cofactors were added individually to each kinase reaction.
(§6) Biochemical kinase inhibitory data was obtained for various exemplary compounds prepared according to the above in accordance with the protocols described in Examples 4 and 8. All biological activities are IC50, in nM.

AKT = AKT (Homo sapiens, UniProt P31749); experiment: RBC HotSpot kinase assay (33P-ATP, P81 filter-binding), AKT; settings: Table 28, biochemical kinase assay; read-out: AKT IC50
Sequence of AKT (P31749 whole entry): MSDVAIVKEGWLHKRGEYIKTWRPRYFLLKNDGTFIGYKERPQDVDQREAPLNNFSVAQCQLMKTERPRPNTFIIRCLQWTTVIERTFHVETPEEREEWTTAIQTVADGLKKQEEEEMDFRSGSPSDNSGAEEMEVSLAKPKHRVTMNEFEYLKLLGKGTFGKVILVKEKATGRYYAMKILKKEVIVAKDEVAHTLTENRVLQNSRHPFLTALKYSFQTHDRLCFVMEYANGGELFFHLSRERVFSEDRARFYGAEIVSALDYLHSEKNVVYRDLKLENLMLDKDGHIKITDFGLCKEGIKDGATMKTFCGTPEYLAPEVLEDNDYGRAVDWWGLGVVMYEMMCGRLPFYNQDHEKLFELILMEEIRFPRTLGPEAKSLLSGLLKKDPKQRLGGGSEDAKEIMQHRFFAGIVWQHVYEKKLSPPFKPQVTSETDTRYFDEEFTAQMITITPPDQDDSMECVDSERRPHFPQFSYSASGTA
Procedure: as §1, §2, §3, §4, §5, §6

LATS1 = target: T2, LATS1 (Homo sapiens, UniProt O95835); experiment: RBC HotSpot kinase assay (33P-ATP, P81 filter-binding), LATS1; settings: Table 28, biochemical kinase assay; read-out: LATS1 IC50
T2 sequence (O95835 1-1130): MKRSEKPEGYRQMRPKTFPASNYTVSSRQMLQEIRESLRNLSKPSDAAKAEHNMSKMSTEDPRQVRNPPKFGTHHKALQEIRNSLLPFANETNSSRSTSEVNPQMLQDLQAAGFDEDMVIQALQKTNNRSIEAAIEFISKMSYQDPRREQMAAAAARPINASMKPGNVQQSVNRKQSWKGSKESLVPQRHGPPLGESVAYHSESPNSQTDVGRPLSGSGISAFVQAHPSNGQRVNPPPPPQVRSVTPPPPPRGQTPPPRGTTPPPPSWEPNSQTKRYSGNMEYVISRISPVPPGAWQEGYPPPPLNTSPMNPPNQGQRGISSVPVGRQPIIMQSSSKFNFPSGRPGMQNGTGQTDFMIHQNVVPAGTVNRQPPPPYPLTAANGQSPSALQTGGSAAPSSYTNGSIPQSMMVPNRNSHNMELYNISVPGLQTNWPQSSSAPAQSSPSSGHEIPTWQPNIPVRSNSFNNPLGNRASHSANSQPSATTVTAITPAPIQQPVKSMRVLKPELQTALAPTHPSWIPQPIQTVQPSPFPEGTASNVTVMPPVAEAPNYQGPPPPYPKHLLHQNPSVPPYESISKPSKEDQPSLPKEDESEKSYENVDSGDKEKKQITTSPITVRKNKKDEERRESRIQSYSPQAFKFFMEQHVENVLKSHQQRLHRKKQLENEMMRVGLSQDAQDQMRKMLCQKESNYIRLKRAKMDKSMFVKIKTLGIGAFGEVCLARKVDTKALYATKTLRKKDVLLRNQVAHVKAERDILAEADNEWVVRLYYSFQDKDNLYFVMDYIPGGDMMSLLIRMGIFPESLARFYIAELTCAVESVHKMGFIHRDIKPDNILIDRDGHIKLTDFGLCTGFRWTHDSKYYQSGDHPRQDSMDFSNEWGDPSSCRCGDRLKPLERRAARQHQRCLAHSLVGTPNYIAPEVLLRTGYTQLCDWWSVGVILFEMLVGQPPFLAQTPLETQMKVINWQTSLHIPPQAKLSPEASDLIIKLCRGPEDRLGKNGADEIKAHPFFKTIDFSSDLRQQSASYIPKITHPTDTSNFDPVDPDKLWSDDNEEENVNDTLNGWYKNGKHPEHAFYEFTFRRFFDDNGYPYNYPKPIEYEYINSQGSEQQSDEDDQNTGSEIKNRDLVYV
Procedure: as §1, §2, §3, §4, §5, §6

| IC50 (LATS2) [nM] | IC50 (AKT) [nM] | IC50 (LATS1) [nM] | Structure (SMILES) |
| --- | --- | --- | --- |
| 1.9 | 474 | 3.4 | Cc1cc(-c2ccnc3[nH]cc(F)c23)cc(F)c1C1(O)[C@H](C)CN(C2CCOCC2)C[C@@H]1C (stereo partly drawn) [Compound 33, (3S,5R)-4-(2-fluoro-4-(3-fluoro-1H-pyrrolo[2,3-b]pyridin-4-yl)-6-methylphenyl)-3,5-dimethyl-1-(tetrahydro-2H-pyran-4-yl)piperidin-4-ol] |
| 8.3 | 908 | 14.3 | Cc1cc(-c2ccnc3[nH]cc(F)c23)cc(F)c1C1(O)[C@H](C)CN(C2CCOC2)C[C@@H]1C (stereo partly drawn) [Compound 34, (3S,5R)-4-(2-fluoro-4-(3-fluoro-1H-pyrrolo[2,3-b]pyridin-4-yl)-6-methylphenyl)-3,5-dimethyl-1-(tetrahydrofuran-3-yl)piperidin-4-ol] |
| 63.4 | 2080 | 99.4 | C[C@@H]1CN(C2CCS(=O)(=O)CC2)C[C@H](C)C1(O)c1cnc(-c2ccnc3[nH]cc(F)c23)cc1F (stereo partly drawn) [Compound 35, 4-((3S,5R)-4-(4-fluoro-6-(3-fluoro-1H-pyrrolo[2,3-b]pyridin-4-yl)pyridin-3-yl)-4-hydroxy-3,5-dimethylpiperidin-1-yl)tetrahydro-2H-thiopyran 1,1-dioxide] |
| 79.6 | > 1000 | 98.5 | C[C@@H]1CN(C2COC2)C[C@H](C)C1(O)c1cnc(-c2ccnc3[nH]cc(F)c23)cc1F (stereo partly drawn) [Compound 36, (3S,5R)-4-(4-fluoro-6-(3-fluoro-1H-pyrrolo[2,3-b]pyridin-4-yl)pyridin-3-yl)-3,5-dimethyl-1-(oxetan-3-yl)piperidin-4-ol] |
| 8.6 | 477 | 10.1 | C[C@@H]1CN(C)C[C@H](C)[C@@]1(O)c1c(F)cc(-c2ccnc3[nH]cc(F)c23)cc1F [Compound 37, (3S,4s,5R)-4-(2,6-difluoro-4-(3-fluoro-1H-pyrrolo[2,3-b]pyridin-4-yl)phenyl)-1,3,5-trimethylpiperidin-4-ol] |
| 27 | 181 | 28 | C[C@@H]1CN(C)C[C@H](C)[C@@]1(O)c1ccc(-c2ccnc3[nH]ccc23)cc1 [Compound 38, (3R,4s,5S)-4-(4-(1H-pyrrolo[2,3-b]pyridin-4-yl)phenyl)-1,3,5-trimethylpiperidin-4-ol] |
| 293 | 1540 | 99 | C[C@@H]1CN(C)C[C@H](C)[C@@]1(O)c1ccc(-c2ccnc3[nH]ccc23)nc1 [Compound 40, (3R,4s,5S)-4-(6-(1H-pyrrolo[2,3-b]pyridin-4-yl)pyridin-3-yl)-1,3,5-trimethylpiperidin-4-ol] |
| 6.7 | 159 | 9.7 | C[C@@H]1CN(C)C[C@H](C)[C@@]1(O)c1ccc(-c2ccnc3[nH]cc(F)c23)cc1F [Compound 42, (3R,4s,5S)-4-(2-fluoro-4-(3-fluoro-1H-pyrrolo[2,3-b]pyridin-4-yl)phenyl)-1,3,5-trimethylpiperidin-4-ol] |
| 2.9 | 63.5 | 3.2 | Cc1cc(-c2ccnc3[nH]cc(F)c23)ccc1[C@@]1(O)[C@H](C)CN(C)C[C@@H]1C [Compound 43, (3R,4s,5S)-4-(4-(3-fluoro-1H-pyrrolo[2,3-b]pyridin-4-yl)-2-methylphenyl)-1,3,5-trimethylpiperidin-4-ol] |
| 19.6 | 1610 | 8.9 | Cc1cc(-c2ccnc3[nH]cc(F)c23)ncc1[C@@]1(O)[C@H](C)CN(C)C[C@@H]1C [Compound 44, (3R,4s,5S)-4-(6-(3-fluoro-1H-pyrrolo[2,3-b]pyridin-4-yl)-4-methylpyridin-3-yl)-1,3,5-trimethylpiperidin-4-ol] |
| 11.2 | 449 | 4.7 | CC(C)N1C[C@@H](C)[C@](O)(c2c(F)cc(-c3ccnc4[nH]cc(F)c34)cc2F)[C@@H](C)C1 [Compound 47, (3R,4s,5S)-4-(2,6-difluoro-4-(3-fluoro-1H-pyrrolo[2,3-b]pyridin-4-yl)phenyl)-1-isopropyl-3,5-dimethylpiperidin-4-ol] |
| 428 | 125 | 697 | Cc1cc(-c2ccnc3[nH]cc(F)c23)cc(Cl)c1[C@@]1(O)[C@H](C)CN(C2COC2)C[C@@H]1C [Compound 49, (3R,4s,5S)-4-(2-chloro-4-(3-fluoro-1H-pyrrolo[2,3-b]pyridin-4-yl)-6-methylphenyl)-3,5-dimethyl-1-(oxetan-3-yl)piperidin-4-ol] |
| 24.7 | 906 | 6.1 | Cc1nc(-c2ccnc3[nH]cc(F)c23)ccc1[C@@]1(O)[C@H](C)CN(C2CCC2)C[C@@H]1C [Compound 50, (3R,4s,5S)-1-cyclobutyl-4-(6-(3-fluoro-1H-pyrrolo[2,3-b]pyridin-4-yl)-2-methylpyridin-3-yl)-3,5-dimethylpiperidin-4-ol] |
| 5080 | > 10000 | 2210 | Cc1cc(-c2ccnc3[nH]cc(F)c23)ncc1[C@@]1(O)[C@H](C)CN(Cc2ccncc2)C[C@@H]1C [Compound 52, (3R,4s,5S)-4-(6-(3-fluoro-1H-pyrrolo[2,3-b]pyridin-4-yl)-4-methylpyridin-3-yl)-3,5-dimethyl-1-(pyridin-4-ylmethyl)piperidin-4-ol] |
